{"source": "patent US5118392A", "about": "“Separation of trichloroethylene from a butyl alcohol by extractive distillation” (priority 1991, dated 1992)", "format_in_all_cases": "physicochemical", "key": {"[1]": {"assay": "Glass perforated plate rectification column (7.3 theoretical plates), trichloroethylene / n-butanol", "settings": "2 hrs", "excerpt": "Dimethylsulfoxide gave a relative volatility of 1.28 after two hours of operation.\nA solution comprising 300 grams of trichloroethylene and 15 grams of n-butanol was placed in the stillpot of a 7.3 theoretical plate glass perforated plate rectification column. […] After two hours operation, overhead and bottoms samples were collected and analysed. The overhead analysis was 98.2% trichloroethylene, 1.8% n-butanol and the bottoms analysis was 90.1% trichloroethylene, 9.9% n-butanol. This gives an average relative volatility of 1.28 for each theoretical plate."}, "[2]": {"assay": "Vapor-liquid equilibrium still, trichloroethylene-n-butanol azeotrope with extractive distillation agent"}, "[3]": {"assay": "Glass perforated plate rectification column (7.3 theoretical plates), trichloroethylene / n-butanol", "settings": "1 hr"}, "[4]": {"assay": "Vapor-liquid equilibrium still, trichloroethylene-2-butanol azeotrope with extractive distillation agent", "excerpt": "(§1) The data in Tables 2, 3, 5, 7, 8, 10 and 11 was obtained in a vapor-liquid equilibrium still. In every case, the starting mixture was the trichloroethylene-butanol azeotrope. The relative volatilities are listed for each of the agents.\nSeventy grams of the trichloroethylene-2-butanol azeotrope and 30 grams of 2-methyl-1-pentanol were charged to the vapor-liquid equilibrium still and refluxed for two hours."}, "[5]": {"assay": "Glass perforated plate rectification column (7.3 theoretical plates), trichloroethylene / 2-butanol", "excerpt": "The overhead analysis was 98.2% trichloroethylene, 1.8% 2-butanol and the bottoms analysis was 65.6% trichloroethylene, 34.4% 2-butanol. This gives an average relative volatility of 1.59 for each theoretical plate."}, "[6]": {"assay": "Vapor-liquid equilibrium still, trichloroethylene-isobutanol azeotrope with extractive distillation agent", "settings": "trichloroethylene from isobutanol, Table 5", "excerpt": "as §1\nSeventy grams of the trichloroethylene-isobutanol azeotrope and 30 grams of n-octanol were charged to the vapor-liquid equilibrium still and refluxed for five hours."}, "[7]": {"settings": "Example 1, refluxed seven hours"}}}
{"smiles": "C[S+](C)[O-]", "note": "[Dimethylsulfoxide]", "values": [{"measurement": "Relative Volatility (average, per theoretical plate)", "setting": "[1]", "result": 1.28}, {"measurement": "Weight % C2 H Cl3", "setting": "[1]; bottoms", "result": 90.1, "unit": "%"}, {"measurement": "Weight % n-Butanol", "setting": "[1]; bottoms", "result": 9.9, "unit": "%"}, {"measurement": "Weight % C2 H Cl3", "setting": "[1]; overhead", "result": 98.2, "unit": "%"}, {"measurement": "Weight % n-Butanol", "setting": "[1]; overhead", "result": 1.8, "unit": "%"}, {"measurement": "liquid composition, n-butanol", "setting": "[2]; [7]", "result": 2.9, "unit": "%"}, {"measurement": "liquid composition, trichloroethylene", "setting": "[2]; [7]", "result": 97.1, "unit": "%"}, {"measurement": "vapor composition, n-butanol", "setting": "[2]; [7]", "result": 2.3, "unit": "%"}, {"measurement": "vapor composition, trichloroethylene", "setting": "[2]; [7]", "result": 97.7, "unit": "%"}, {"measurement": "Relative Volatility", "setting": "[2]; Example 1: 60 g azeotrope, 30 g agent, refluxed seven hours", "result": 1.25}, {"measurement": "Relative Volatility", "setting": "[2]; trichloroethylene from n-butanol, Table 2", "result": 1.3}, {"measurement": "Relative Volatility (per theoretical plate)", "setting": "[3]", "result": 1.22}, {"measurement": "Weight % C2 H Cl3", "setting": "[3]; bottoms", "result": 88.2, "unit": "%"}, {"measurement": "Weight % n-Butanol", "setting": "[3]; bottoms", "result": 11.8, "unit": "%"}, {"measurement": "Weight % C2 H Cl3", "setting": "[3]; overhead", "result": 96.9, "unit": "%"}, {"measurement": "Weight % n-Butanol", "setting": "[3]; overhead", "result": 3.1, "unit": "%"}]}
{"smiles": "CCCC(C)CO", "note": "(stereo not drawn) [2-Methyl-1-pentanol]", "values": [{"measurement": "liquid composition, 2-butanol", "setting": "[4]; Example 5, refluxed two hours", "result": 19.5, "unit": "%"}, {"measurement": "liquid composition, trichloroethylene", "setting": "[4]; Example 5, refluxed two hours", "result": 80.5, "unit": "%"}, {"measurement": "vapor composition, 2-butanol", "setting": "[4]; Example 5, refluxed two hours", "result": 11.9, "unit": "%"}, {"measurement": "vapor composition, trichloroethylene", "setting": "[4]; Example 5, refluxed two hours", "result": 88.1, "unit": "%"}, {"measurement": "Relative Volatility", "setting": "[4]; Example 5: 70 g azeotrope, 30 g agent, refluxed two hours", "result": 1.75}, {"measurement": "Relative Volatility", "setting": "[4]; trichloroethylene from 2-butanol, Table 7", "result": 1.6}, {"measurement": "Relative Volatility (per theoretical plate)", "setting": "[5]; 1 hr", "result": 1.49}, {"measurement": "Relative Volatility (average, per theoretical plate)", "setting": "[5]; 2 hrs", "result": 1.59}, {"measurement": "Weight % 2-Butanol", "setting": "[5]; bottoms, 1 hr", "result": 30.7, "unit": "%"}, {"measurement": "Weight % C2 H Cl3", "setting": "[5]; bottoms, 1 hr", "result": 69.3, "unit": "%"}, {"measurement": "Weight % 2-Butanol", "setting": "[5]; bottoms, 2 hrs", "result": 34.4, "unit": "%"}, {"measurement": "Weight % C2 H Cl3", "setting": "[5]; bottoms, 2 hrs", "result": 65.6, "unit": "%"}, {"measurement": "Weight % 2-Butanol", "setting": "[5]; overhead, 1 hr", "result": 2.4, "unit": "%"}, {"measurement": "Weight % C2 H Cl3", "setting": "[5]; overhead, 1 hr", "result": 97.6, "unit": "%"}, {"measurement": "Weight % 2-Butanol", "setting": "[5]; overhead, 2 hrs", "result": 1.8, "unit": "%"}, {"measurement": "Weight % C2 H Cl3", "setting": "[5]; overhead, 2 hrs", "result": 98.2, "unit": "%"}, {"measurement": "Relative Volatility", "setting": "[6]", "result": 2.2}]}
